Patent publication US20100209934A1, “METHOD OF IDENTIFYING AGENTS WHICH MODULATE THE ACTIVITY OF CALCIUM-ACTIVATED CHLORIDE CHANNEL” (SNU R&DB FOUNDATION, priority 2007, published 2010)

Assays:
[1] = tested on: mANO1; test: Whole-cell current response to GPCR stimulation in HEK 293T cells co-transfected with mANO1 and a GPCR; type: cell-based, mouse; conditions: mANO1 co-expressed in HEK cells with M1R, H1R or AT1R; carbachol 1 μM, histamine 100 μM, angiotensin II 1 μM
Method: HEK 293T cells were transfected with pEGFP-N1 (control) (1.0 μg) or pEGFP-N-1-mANO1 (0.8˜1.0 μg) and/or any one of the GPCR cDNAs (1.0 μg) obtained in Reference Example 2, using a FuGENE® HD transfection reagent (Roche Diagnostics, Penzberg, Germany). Transfected cells were maintained in DMEM supplemented with heat inactivated 10% fetal bovine serum (GIBCO BRL, Rockville, Md.) and penicillin-streptomycin at 37 in a 5% CO2 humidified atmosphere. One or two days after transfection, transfected cells were used for biochemical and electrophysiological experiments.
(§1) To form gigaseals, individual cell surfaces were touched with a ˜3 Mohm Sylgard-coated glass pipette with gentle suction, and the junction potential was then adjusted to 0 mV. The membrane in contact with the pipette was then ruptured by suction to form a whole cell. The pipette solution contained 140 mM NMDG-Cl, 2 mM MgCl2, 10 mM HEPES, 2 mM ATP, and 0.3 mM GTP adjusted to pH 7.2, and the bath solution contained 140 mM NMDG-Cl, 2 mM MgCl2 and 10 mM HEPES (pH 7.2). For ion selectivity experiments, 140 mM NMDG-Cl was replaced with equimolar NaCl, NaL NaBr, NaNO3, NaF, or Na-gluconate in the bath solution. To determine current-voltage relationships, voltage ramps from −80 or −100 mV to +80 or +100 mV were delivered for 350 ms, or voltage-pulses from −100 mV to +100 mV were delivered for 400 ms to whole cells. When mANO1 was activated by 300 nM intracellular Ca^2+, voltage-pulses of 2500 ms were delivered. Whole-cell currents were amplified using an Axopatch 200B amplifier (Molecular Device, Sunnyvale, Calif.) and stored in a personal computer after digitization by a Digidata 1440 (Molecular Device). For single-channel current recordings, cell-attached or inside-out patches were formed from gigaseals. The pipette and control bath solution contained 140 mM NMDG-Cl, 2 mM MgCl2 and 10 mM HEPES (pH 7.2). […] To create amplitude histograms, pClamp software (version 6.0, Molecular Device) was used to analyze open and closed single-channel current events. The half-amplitude algorithm was used to determine an open event. The minimum duration of an open event was set at 0.1 ms.
Under physiological conditions CaCCs are known to be activated by GPCR stimulation. Endothelin-1 is a powerful vasoconstrictor that depolarizes vascular smooth muscle by activating CaCCs (Klockner, U. & Isenberg, G., Pflugers Arch. 418, 168-75 (1991); and Salter, K. J. & Kozlowski, R. Z., J Pharmacol Exp Ther. 279, 1053-62 (1996)). Thus, mANO1 and endothelin receptor subtype A (ETAR) were transfected into HEK 293T cells, along with GFP for visual identification of transfected cells, in accordance with the method of Reference Example 5. Whole cells were used to test the current response of mANO1 to ETAR stimulation. Pipette and bath solutions contained 140 mM N-methyl D-glucamine (NMDG)-Cl, which permitted Cl^− to be used as the main charge carrier. The pipette solution was Ca^2+ free and contained no EGTA. […] In contrast, endothelin-1 evoked currents were minimal in HEK cells transfected with ETAR or control (GFP-transfected only) cells. When mANO1 was transfected alone, 50 nM endothelin-1 evoked appreciable currents; presumably because of the presence of endogenous endothelin receptors in HEK cells.

[2] = biological target: T1, mANO1 (Mus musculus, UniProt Q8BHY3, S527P); test: Inhibition of endothelin-1 evoked currents in mANO1-ETAR/HEK cells by Cl− channel and CaCC blockers; type: cell-based; set-up: expressed in transfected cells; conditions: ANO1/ETAR-HEK cells; blockers 10 μM (mefloquine 5 μM) applied 5 min before second 50 nM endothelin-1
T1 sequence (Q8BHY3 1-960 S527P): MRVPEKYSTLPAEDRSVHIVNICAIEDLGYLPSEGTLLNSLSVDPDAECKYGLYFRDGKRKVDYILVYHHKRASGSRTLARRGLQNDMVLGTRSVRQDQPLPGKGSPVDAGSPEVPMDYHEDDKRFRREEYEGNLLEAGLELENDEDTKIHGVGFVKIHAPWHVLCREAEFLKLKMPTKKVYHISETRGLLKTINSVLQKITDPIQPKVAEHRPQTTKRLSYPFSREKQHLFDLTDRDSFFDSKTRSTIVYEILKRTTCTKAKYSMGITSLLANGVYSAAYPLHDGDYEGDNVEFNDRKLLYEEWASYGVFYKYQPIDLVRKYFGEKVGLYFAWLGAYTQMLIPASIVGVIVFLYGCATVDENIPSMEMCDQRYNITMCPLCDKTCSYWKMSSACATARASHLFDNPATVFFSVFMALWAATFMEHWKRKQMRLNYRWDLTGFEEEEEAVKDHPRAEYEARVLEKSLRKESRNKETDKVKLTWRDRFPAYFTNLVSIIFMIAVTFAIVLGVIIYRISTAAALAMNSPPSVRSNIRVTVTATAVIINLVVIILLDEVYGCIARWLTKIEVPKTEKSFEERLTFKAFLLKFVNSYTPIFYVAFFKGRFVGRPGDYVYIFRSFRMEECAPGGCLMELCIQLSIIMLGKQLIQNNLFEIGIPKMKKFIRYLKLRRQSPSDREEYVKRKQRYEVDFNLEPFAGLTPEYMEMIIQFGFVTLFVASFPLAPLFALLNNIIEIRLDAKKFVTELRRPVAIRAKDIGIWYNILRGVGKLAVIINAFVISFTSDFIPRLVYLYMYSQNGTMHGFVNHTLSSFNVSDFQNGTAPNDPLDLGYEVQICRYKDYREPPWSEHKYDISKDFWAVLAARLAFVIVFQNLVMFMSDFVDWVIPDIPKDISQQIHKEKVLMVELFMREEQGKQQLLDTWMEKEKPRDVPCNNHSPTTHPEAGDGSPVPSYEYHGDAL
Method: B. Inhibition of endothelin-1 evoked currents in mANO1-ETAR/HEK cells by Cl^− channel blockers as well as classical inhibitors (each, n=5) of native CaCCs. Chemicals in 10 μM (except mefloquine, 5 μM) were applied 5 min before the second application of endothelin-1. Control (n=12). **p<0.001 compared to control (ANOVA, Duncan's post hoc test). (Error bars=Mean±S.E.M)
as §1
(§2) LPA-induced ANO1 currents were blocked by Cl^− channel blockers. The Cl^− channel blockers were applied 10˜20 min before the LPA application. […] This blockade of agonist-induced ANO1 currents by DIDS, niflumic acid, or NPPB were also observed in mammalian cells transfected with mANO1.
In addition, modifiers of various enzymes or transporters such as fluoxetine (serotonin reuptake inhibitor), tamoxifen (estrogen receptor modulator), n-phenyl-anthranilic acid (NPA, cyclooxygenase inhibitor), and mefloquine (antimalarial drug) are known to block native CaCCs (Eggermont, J., Proc Am Thorac Soc. 1, 22-7 (2004); Nilius, B. et al. J Physiol. 498, 381-96 (1997); Nilius, B. & Droogmans, G., Acta Physiol Scand 177, 119-47 (2003)). If ANO1 is a CaCC, mANO1 should be inhibited by these CaCC blockers.

[3] = biological target: T1, mANO1; test: Two-electrode voltage clamp currents in Xenopus oocytes injected with mANO1 complementary RNA; type: cell-based; set-up: expressed in transfected cells; host or cells: Xenopus laevis oocytes (cRNA injection); conditions: for block of LPA-induced ANO1 currents: DIDS 300 μM, niflumic acid 200 μM, NPPB 200 μM applied 10˜20 min before LPA; for block of LPA current responses by pretreatment: mANO1 oocytes, 1 μM thapsigargin for 3 hours or 10 μM U-73122 for 20 min before 1 μM LPA
Method: pSDTF-mANO1 obtained in Reference Example 1 was linearized using BamHI. Complementary RNA was transcribed with SP6 RNA polymerase (mMESSAGE mMACHINE® SP6 Kit, Ambion, Austin, Tex.). After being defolliculated with collagenase (Type IA, Sigma), Xenopus laevis oocytes were injected with 50 ng of the complementary RNAs of mANO1 in 50 nl of diethylpyrocarbonate-treated water. Two to five days after the injection, whole cell currents were recorded using the two-electrode voltage clamp technique. The bath solution contained 96 mM NaCl, 1 mM MgCl2, 5 mM HEPES, 2 mM KCl and 1.8 mM CaCl2 at pH 7.5 and was perfused at 2 ml/min. Experiments were performed at room temperature.
Xenopus oocytes provide a recognized model for endogenous CaCC studies because they express endogenous CaCCs that are required for ‘fertilization depolarization’ (Hartzell, H. C. et al., Mol Pharmacol 51, 683-92 (1997)). Furthermore, the biophysical and pharmacological properties of Xenopus CaCCs are similar to those of mammalian CaCCs (Machaca, K. et al., Calcium-Activated Chloride Channels (ed. Fuller, C. M.) (Academic Press, Amsterdam, 2002)). Accordingly, the present inventors expressed mANO1 in Xenopus oocytes and tested its activation by receptor stimulation using 1 μM LPA (lysophosphatidic acid). CaCCs in Xenopus are known to be activated by LPA (Guo, Z. et al., Proc Natl Acad Sci USA. 93, 14367-72 (1996); and Kim, M. J. et al., Biochem Pharmacol. 59, 241-7 (2000)). […] Moreover, LPA-induced ANO1 currents were outwardly-rectifying, like those of native CaCCs in Xenopus oocytes (Machaca, K. et al., supra) (FIG. 4C). The reversal potential was 37.7±1.05 mV (n=5), which is close to the equilibrium potential of Cl^− in Xenopus oocytes (Weber, W., Biochim Biophys Acta 1421, 213-33 (1999)).
Indeed, LPA (1 μM) applied to oocytes expressing mANO1 induced a large inward current.
Further, pretreatment of 1 μM thapsigargin blocked the IP3-induced current in a mANO1-expressing oocyte (FIGS. 10C and 10D).
as §2

Q: With `C[N+](C)(C)CCOC(N)=O` [carbachol] as the compound, how does the “current responses to GPCR ligands” value [1] read?
A: robust current responses

Q: `OC(c1cc(C(F)(F)F)nc2c(C(F)(F)F)cccc12)C1CCCCN1` (stereo not drawn) [mefloquine] was tested. Which “inhibition of response to second application of endothelin-1 (endothelin-1 induced currents)” value (from here on “inhibition of response”) [2] did it give?
A: markedly inhibited

Q: What does the source list for `O=C(O)c1cccnc1Nc1cccc(C(F)(F)F)c1` [niflumic acid]?
A: block of LPA-induced ANO1 currents ([3]; Xenopus oocytes): significantly blocked; inhibition of response to second application of endothelin-1 (endothelin-1 induced currents) [2]: markedly inhibited

Q: Which “inhibition of response” value [2] does the source give for `O=C(O)c1ccccc1Nc1ccccc1` [n-phenyl-anthranilic acid] here?
A: markedly inhibited

Q: For `CNCCC(Oc1ccc(C(F)(F)F)cc1)c1ccccc1` (stereo not drawn) [fluoxetine], which “inhibition of response” value [2] is on record?
A: markedly inhibited

Q: Which “block of LPA current responses by pretreatment” value [3] does the source give for `COc1ccc2c(c1)CC[C@@H]1[C@@H]2CC[C@]2(C)[C@@H](NCCCCCCN3C(=O)C=CC3=O)CC[C@@H]12` [U-73122] here?
A: completely blocked

Q: How did the “current responses to GPCR ligands” value [1] turn out when `NCCc1c[nH]cn1` [histamine] was run?
A: robust current responses

Q: `CC/C(=C(\c1ccccc1)c1ccc(OCCN(C)C)cc1)c1ccccc1` [tamoxifen] was tested. Which “inhibition of response” value [2] did it give?
A: markedly inhibited

Q: `O=S(=O)(O)c1cc(N=C=S)ccc1C=Cc1ccc(N=C=S)cc1S(=O)(=O)O` [DIDS, 4,4′-diisothiocyanato-stilbene-2,2′-disulfonic acid] was tested. Which “block of LPA-induced ANO1 currents” value ([3]; Xenopus oocytes) did it give?
A: significantly blocked

Q: And the “inhibition of response” value [2]?
A: markedly inhibited

Q: `C/C=C(/C)C(=O)O[C@H]1C(C)=C2[C@H]([C@@H]1OC(=O)CCCCCCC)[C@@](C)(OC(C)=O)C[C@H](OC(=O)CCC)[C@@]1(O)[C@H]2OC(=O)[C@@]1(C)O` [thapsigargin] was tested. Which “block of LPA current responses by pretreatment” value [3] did it give?
A: completely blocked

Q: And the “block of IP3-induced current” value ([3]; pretreatment of 1 μM thapsigargin, mANO1-expressing oocyte)?
A: blocked

Q: Which results are given for `O=C(O)c1cc([N+](=O)[O-])ccc1NCCCc1ccccc1` [NPPB, 5-nitro-2-(3-phenyl-propylamino)-benzoate]?
A: block of LPA-induced ANO1 currents ([3]; Xenopus oocytes): significantly blocked; inhibition of response to second application of endothelin-1 (endothelin-1 induced currents) [2]: markedly inhibited

Q: With lysophosphatidic acid [LPA] as the compound, how does the “current response to LPA in mANO1 RNA-injected vs water-injected oocytes” value ([3]; 1 μM LPA, Xenopus oocytes, −60 mV) read?
A: increased about six fold

Q: `O=P(O)(O)O[C@@H]1[C@H](O)[C@H](O)[C@@H](OP(=O)(O)O)[C@H](OP(=O)(O)O)[C@H]1O` [IP3, inositol 1,4,5,-triphosphate] was tested. Which “inward currents evoked by IP3 micro-injection” value ([3]; 2 mM IP3 in 50 nl into oocytes expressing ANO1) did it give?
A: evoked robust inward currents

Q: Which “current responses to GPCR ligands” value [1] does the source give for “angiotensin II (DRVYIHPF) [ligand of angiotensin receptor subtype 1 (AT1R)]” here?
A: robust current responses
